This note sets out measurements from patent US8916702B2 (priority 2012, dated 2014).

In general, EC50 refers to the concentration that produces a half-maximal response.

For the experiment, the system named is HCV pseudoparticles (genotype 1a HCV E1 and E2 envelope, H77C isolate). Kind of experiment: microbe, parasite or virus in culture. The conditions noted are these: Hepatitis C virus. It counts as cell-based.
Where [1] appears, read: Huh-7, 48 h, read-out: Activity (EC50 class), HCV pseudoparticles, Huh7 cells, luciferase 2 days after infection, average of duplicates.
The mark [2] stands for this setting: Huh-7, read-out: Activity (EC50 class), HCV pseudoparticles (genotype 1a, H77C) in Huh7 cells, EC50 expressed as class A/B.
[3] abbreviates: Huh-7, 48 h, read-out: Activity (EC50 class), HCV pseudoparticle infection of Huh7 cells, luciferase 2 days after infection, EC50 expressed as class A/B.
The mark [4] stands for this setting: Huh-7, 48 h, HCV pseudoparticle infection of Huh7 cells, luciferase 2 days after infection, average of duplicates.

Where two headings read alike, the source gives them in different places.

For the molecule `CC(C)c1ccc(COc2nc(Nc3ccc(C(=O)NCC(C)(C)CNC(=O)C(=O)Nc4ccccc4-c4ccccc4)c(F)c3)nc(NC3(c4ccc(Cl)cc4)CC3)n2)cc1` [Compound 3830, N^1-([1, 1′-biphenyl]-2-yl)-N^2-(3-(4-((4-((1-(4-chlorophenyl)cyclopropyl)amino)-6-((4-isopropylbenzyl)oxy)-1,3,5-triazin-2-yl)amino)-2-fluorobenzamido)-2,2-dimethylpropyl)oxalamide], the concentration giving a half-maximal response (EC50) under setting [1] was in the range of 0.01 to 10 nM.
Regarding `COC(=O)[C@H](CCNC(=O)C(=O)Nc1ccc(N2CCCC2=O)cc1)NC(=O)c1ccc(Nc2nc(NC3(c4ccc(Cl)cc4)CC3)nc(OCC(F)(F)F)n2)cc1` [Compound 3126], under setting [2], the EC50 fell in the range of 0.01 to 10 nM.
With `CC(C)(CNC(=O)C(=O)Nc1ccccc1-c1ccccc1)CNC(=O)c1ccc(Nc2nc(NC3(c4ccc(Cl)cc4)CC3)nc(OCC(F)(F)F)n2)cc1` [Compound 1572], under setting [3], the EC50 lay in the range of 0.01 to 10 nM.
Consider `COC(=O)[C@H](CNC(=O)C(=O)N(C)C)NC(=O)c1ccc(Nc2nc(NC3(c4ccc(Cl)cc4)CC3)nc(OCC(F)(F)F)n2)cc1` [Compound 1004, (S)-methyl 2-(4-(4-(1-(4-chlorophenyl)cyclopropylamino)-6-(2,2,2-trifluoroethoxy)-1,3,5-triazin-2-ylamino)benzamido)-3-(2-(dimethylamino)-2-oxoacetamido)propanoate], for which the EC50 was 4.74 nM under setting [4] and 0.01 to 10 nM under setting [3].
Consider `COC(=O)[C@H](CNC(=O)C(=O)Nc1cccc(-c2ccncc2)c1)NC(=O)c1ccc(Nc2nc(NC3(c4ccc(Cl)cc4)CC3)nc(OCC(F)(F)F)n2)cc1` [Compound 3712], for which the EC50 under setting [1] lay within 0.01 to 10 nM.
As to `COC(=O)[C@@H](CCNC(=O)C(=O)NCC1CC1c1cccc(OC)c1)NC(=O)c1ccc(Nc2nc(NC3(c4ccc(Cl)cc4)CC3)nc(OCC(F)(F)F)n2)cc1` (stereo partly shown) [Compound 1416], under setting [3], the EC50 is 0.01 to 10 nM.
The same measure, in the same setting: the result for `Cc1ccc(NC(=O)C(=O)NCC(C)(C)CNC(=O)c2ccc(Nc3nc(NC4(c5ccc(Cl)cc5)CC4)nc(OCC(F)(F)F)n3)cc2)cc1` [Compound 1536] reads 0.01 to 10 nM.
For the molecule `O=C(NCCC(NC(=O)c1ccc(Nc2nc(NC3(c4ccc(Cl)cc4)CC3)nc(OCC(F)(F)F)n2)cc1)C(=O)O)C(=O)Nc1ccc(Oc2ccc(F)cc2)cc1` (stereo not shown) [Compound 3522], under setting [2], the EC50 is 10 to 1000 nM.
As to `O=C(NCC[C@H](NC(=O)c1ccc(Nc2nc(NC3(c4ccc(Cl)cc4)CC3)nc(OCC(F)(F)F)n2)cc1)C(=O)O)C(=O)Nc1ccc(Cn2ccnc2)cc1` [Compound 3540], the EC50 reads like this: (Huh-7, 48 h, HCV pseudoparticles (genotype 1a, H77C) in Huh7 cells, average of duplicate, luciferase 2 days after infection) 26.2 nM; under setting [2], 10 to 1000 nM.
Consider `O=C(NC[C@H](NC(=O)c1ccc(Nc2nc(NC3(c4ccc(Cl)cc4)CC3)nc(OCC(F)(F)F)n2)cc1)C(=O)O)C(=O)NC1CCC(O)CC1` (stereo partly shown) [Compound 1078], for which the EC50 was 11.9 nM under setting [4] and 10 to 1000 nM under setting [3].
Regarding `COC(=O)[C@H](CCNC(=O)C(=O)NCC1CC[C@H]2C[C@@H]1C2(C)C)NC(=O)c1ccc(Nc2nc(NC3(c4ccc(Cl)cc4)CC3)nc(OCC(F)(F)F)n2)cc1` (stereo partly shown) [Compound 1201], the EC50 under setting [3] is 0.01 to 10 nM.
Take `O=C(NC[C@H](NC(=O)c1ccc(Nc2nc(NC3(c4ccc(Cl)cc4)CC3)nc(OCC(F)(F)F)n2)cc1)C(=O)O)C(=O)N[C@@H]1C[C@@H]2CC[C@H]1C2` [Compound 1080]: under setting [3], the EC50 fell in the range of 0.01 to 10 nM.
In the case of `O=C(NCc1ccc(F)cc1F)C(=O)NC[C@H](NC(=O)c1ccc(Nc2nc(NC3(c4ccc(Cl)cc4)CC3)nc(OCC(F)(F)F)n2)cc1)C(=O)O` [Compound 1168], under setting [3], the EC50 lay within 0.01 to 10 nM.
For the molecule `CC(C)(CNC(=O)C(=O)Nc1ccc(C(F)(F)F)c(F)c1)CNC(=O)c1ccc(Nc2nc(NC3(c4ccc(Cl)cc4)CC3)nc(OCC(F)(F)F)n2)cc1` [Compound 3250], the EC50 under setting [2] was 0.01 to 10 nM.
For `COC(=O)[C@H](CNC(=O)C(=O)Nc1cccc(Cl)c1)NC(=O)c1ccc(Nc2nc(NC3(c4ccc(Cl)cc4)CC3)nc(OCC(F)(F)F)n2)cc1` [Compound 3685], the EC50 under setting [1] was in the range of 0.01 to 10 nM.
Consider `COC(=O)[C@H](CCNC(=O)C(=O)Nc1ccc(OCC(F)(F)F)cc1)NC(=O)c1ccc(Nc2nc(NC3(c4ccc(Cl)cc4)CC3)nc(OCC(F)(F)F)n2)cc1` [Compound 3125], for which, under setting [2], the EC50 was in the range of 0.01 to 10 nM.
